Measured values: US4029801A, “Pharmaceutical compositions and methods of treating hypertension” (priority 1970, dated 1977)
Like-named read-outs stand apart in the source and are kept apart here.

What was measured:
Depressant activity = format: in vivo; conditions: result in words
[1] = system: blood pressure and heart rate; experiment: Method 1 (rat): hypotensive activity in anaesthetised rats, i.v.; conditions: for minimal effective dose: Rattus norvegicus, iv
Description: Rats were anaesthetised with pentobarbitone sodium (60 mg/kg) and the jugular vein, trachea and carotid artery were cannulated. […] A decrease in heart rate of more than 30% from control values was considered to be significant bradycardia.

blood pressure = experiment: Tests for action on the cardiovascular system: hypotensive activity (activity in method 1, rats or cats, or method 2), reported in words; format: in vivo, rat, cat; conditions: standard test procedure, result in words
Description: Tests for action on the cardiovascular system were conducted according to one of the following procedures:
Cats were anaesthetised with pentobarbitone sodium (30 mg/kg) and the cephalic vein, femoral and carotid arteries and trachea were cannulated. The carotid cannula was introduced into the left ventricle and the femoral cannula into the aorta. Blood pressure and heart rate were recorded from the aortic cannula and left ventricular pressure from the carotid cannula. The test compunds were administered intravenously (0.1-25.6 mg/kg).
Method 2 (hypertensive rats)
Male or female rats are rendered hypertensive by applying a figure of 8 ligature around one kidney and contralateral nephrectomy. Blood pressure stabilises at a hypertensive level after 6 weeks. Systolic pressure is measured indirectly using a Decker Caudal Plethysmograph A control group of rats is run with each group treated with drug. Each group usually consists of six rats. Drugs are usually administered by the IP or oral routes. Pressures are read prior to drug administration and at two and 24 hours thereafter.

histamine = target: T1, histamine (Cavia porcellus, UniProt P31389); experiment: Antihistamine activity by the method of Alps et al.; conditions: for antihistamine activity: result in words
T1 construct: from tissue

α-adrenoceptor = experiment: α-Adrenoceptor antagonism on the guinea pig aortic strip; conditions: for α-blockade pA2: Table 4; for α-adrenoceptor antagonism: result in words
Source text: Carried out on the guinea pig aortic strip [Furchgott and Bhadrakom (1953) J. Pharmac. exp. Ther. 108, 129-143] by the method of Alps et al [Br. J. Pharmac. 1972 44, 52-62].

[2] = 0.25 h, read-out: Hypotensive Activity
[3] = Table 4, read-out: Antihistamine pA2 (converted)

T1 sequence (P31389 whole entry): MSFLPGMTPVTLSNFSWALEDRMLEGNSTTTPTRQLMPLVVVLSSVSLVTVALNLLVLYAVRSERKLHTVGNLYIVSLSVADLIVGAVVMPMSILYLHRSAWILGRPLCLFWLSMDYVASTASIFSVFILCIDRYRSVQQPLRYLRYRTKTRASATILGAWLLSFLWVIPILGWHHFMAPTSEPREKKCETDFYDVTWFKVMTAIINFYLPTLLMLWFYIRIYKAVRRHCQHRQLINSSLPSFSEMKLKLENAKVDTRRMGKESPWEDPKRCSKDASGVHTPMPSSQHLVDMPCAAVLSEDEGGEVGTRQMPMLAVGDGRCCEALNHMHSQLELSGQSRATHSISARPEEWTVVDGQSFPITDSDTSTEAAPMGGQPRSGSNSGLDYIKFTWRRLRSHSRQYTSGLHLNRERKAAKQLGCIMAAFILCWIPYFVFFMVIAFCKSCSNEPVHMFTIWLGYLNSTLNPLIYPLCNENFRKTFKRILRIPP

antihistamine activity (histamine) | Structure (SMILES) | minimal effective dose [1, 2] [mg/kg] | hypotensive activity (blood pressure) | α-blockade pA2 (α-adrenoceptor) | other results
 | O=C(NC1CCN(CCc2cccc3ccccc23)CC1)c1ccccc1 [Example 12, 1-[2-(1-Naphthyl)ethyl]-4-benzamidopiperidine] | < 30 |  |  | depressant activity (Depressant activity): depressant activity
antihistamine activity | O=C(NC1CCN(CCC2=CCc3ccccc32)CC1)c1ccccc1 [Example 14, 1-[2-(3-Indenyl)ethyl]-4-benzamidopiperidine] | 6.4 to 12.8 | hypotensive activity |  | 
antihistamine activities | O=C(NC1CCN(CCCC2=CCc3ccccc32)CC1)c1ccccc1 [Example 15, 1-[3-(3-Indenyl)propyl]-4-benzamidopiperidine] | 6.4 to 12.8 | hypotensive | 7.4 | 
 | Cc1ccccc1NC(=O)CCN1CCC(NC(=O)c2ccccc2)CC1 [Example 16, 1-[N-(2-Methylphenyl)carbamoylethyl]-4-benzamidopiperidine] |  |  |  | depressant activity (Depressant activity): depressant activity
antihistamine activity | CC(=O)Nc1ccc(OCC(O)CN2CCC(NC(=O)c3ccccc3)CC2)cc1 (stereo not drawn) [Example 17, 1-[1-(4-Acetamidophenoxy)-2-hydroxyprop-3-yl]-4-benzamidopiperidine] | < 30 | hypotensive activity |  | Kb (histamine; [3]): 100 nM
 | O=C(NC1CCN(CCc2ccccc2)CC1)c1ccccc1 [Example 27, 1-Phenethyl-4-benzamidopiperidine] | 1.6 to 3.2 | hypotensive activity |  | minimal effective dose ([1]; read-out: Significant hypotension (dose; fall of 30 mm mercury or more in diastolic pressure)): 3.2 mg/kg; Fatal (dose) ([1]; anaesthetised rat, i.v., cumulative dose): 12.8 to 25.6 mg/kg; pA2 (α-adrenoceptor antagonism) (α-adrenoceptor; guinea pig aortic strip): 5.7; Kb (histamine; Table 2): 79.4 nM
anti-histamine activity | O=C(NC1CCN(CCCCc2ccc(F)cc2)CC1)c1ccccc1 [Example 40, 1-[4-(p-Fluorophenyl)-n-butyl]-4-benzamidopiperidine] | 1.6 to 3.2 | hypotensive activity | 6.4 | α-adrenoceptor antagonism (α-adrenoceptor): α-adrenoceptor antagonism; Kb (histamine; [3]): 31.6 nM
antihistamine | Cc1ccc(C)c(C(=O)CCCN2CCC(NC(=O)c3ccccc3)CC2)c1 [Example 44, 4-Benzamido-1-[4-(2,5-dimethylphenyl)-4-oxobutyl]piperidine] | 1.6 to 3.2 | hypotensive activity | 7.5 | α-adrenoceptor antagonism (α-adrenoceptor): α-adrenoceptor antagonist activities; Kb (histamine; [3]): 20 nM
antihistamine | Cc1ccc(C(=O)CCCN2CCC(NC(=O)c3ccccc3)CC2)c(C)c1 [Example 45, 4-Benzamido-1-[4-(2,4-dimethylphenyl)-4-oxo-butyl]piperidine] | 1.6 to 3.2 | hypotensive activity | 7.2 | α-adrenoceptor antagonism (α-adrenoceptor): α-adrenoceptor antagonist activity; Kb (histamine; [3]): 10 nM
antihistamine activity | O=C(NC1CCN(CCCCc2ccccc2)CC1)c1ccccc1 [Example 46, 1-(4-Phenylbutyl)-4-benzamidopiperidine] | 6.4 to 12.8 | hypotensive activity | 6.95 | α-adrenoceptor antagonism (α-adrenoceptor): α-adrenoceptor antagonist; Kb (histamine; [3]): 39.8 nM
 | O=C(NC1CCN(CCOc2ccccc2)CC1)c1ccccc1 [Example 52, 1-(2-Phenoxyethyl)-4-benzamidopiperidine] | 6.4 to 12.8 | marked hypotensive activity | 5.9 | 
 | O=C(CCCN1CCC(NC(=O)c2ccccc2)CC1)c1ccc2c(c1)CCCC2 [Example 58, 1-[4-(1,2,3,4-Tetrahydro-6-naphthyl)-4-oxobutyl]-4-benzamidopiperidine] | 1.6 to 3.2 | hypotensive activity | 6.9 | 
 | O=C(CCN1CCC(NC(=O)c2ccccc2)CC1)c1ccccc1 [Example 69, 4-Benzamido-1-(3-phenyl-3-oxopropyl)piperidine] | 1.6 to 3.2 | marked hypotensive activity | 6.6 | 
 | CC(C)(C)c1ccc(C(=O)CCCN2CCC(NC(=O)c3ccccc3)CC2)cc1 [Example 70, 4-Benzamido-1-[4-(4-tert-butyl-phenyl)-4-oxobutyl]piperidine] | 0.8 | hypotensive activity | 6.6 | 
 | NC1CCN(CCCC(=O)c2ccccc2)CC1 [Example 72, 4-Amino-1-(4-phenyl-4-oxobutyl)piperidine] |  |  | 6.9 | 
 | O=C(CCCN1CCC(NC(=O)c2ccc3c(c2)OCO3)CC1)c1ccccc1 [Example 74, 4-Piperonylamido-1-(4-phenyl-4-oxobutyl)-piperidine] | 6.4 to 12.8 | hypotensive activity | 6.4 | 

antihistamine activity (histamine) | Structure (SMILES) | minimal effective dose [1, 2] [mg/kg] | hypotensive activity (blood pressure) | α-blockade pA2 (α-adrenoceptor) | other results
 | O=C(CCCN1CCC(NC(=O)C2CCCCC2)CC1)c1ccccc1 [Example 75, 4-Cyclohexanecarboxamido-1-(4-phenyl-4-oxobutyl)piperidine] | 6.4 to 12.8 | marked hypotensive activity | 6.9 | 
 | O=C(NC1CCN(CCCC(O)c2ccc3c(c2)CCCC3)CC1)c1ccccc1 (stereo not drawn) [Example 79, 1-[4-(1',2',3',4'-Tetrahydro-6'-naphthyl)-4-hydroxybutyl]-4-benzamidopiperidine] | 1.6 to 3.2 | hypotensive activity | 6.05 | Kb (histamine; [3]): 100 nM
 | O=C(NC1CCN(CCCCc2ccc3c(c2)CCCC3)CC1)c1ccccc1 [Example 81, 1-[4-(1',2',3',4'-Tetrahydro-6-naphthyl)butyl]-4-benzamidopiperidine] | 1.6 to 3.2 | hypotensive activity | 6.6 | 
 | O=C(NC1CCN(CCCC(O)c2ccc3ccccc3c2)CC1)c1ccccc1 (stereo not drawn) [Example 83, 1-[4-(2'-Naphthyl)-4-hydroxybutyl]-4-benzamidpiperidine] | 1.6 to 3.2 | hypotensive activity |  | 
 | O=C(NC1CCN(CCc2ccc3ccccc3c2)CC1)C1CCCCC1 [Example 84] | 6.4 to 12.8 | hypotensive activity |  | 
 | O=C(NC1CCN(CCC=C(c2ccc(F)cc2)c2ccc(F)cc2)CC1)c1ccccc1 [Example 87, 4-(4-Benzamidopiperid-1-yl)-1,1-(di-p-fluorophenyl)but-l-ene] | 25.6 | hypotensive activity |  | 
 | O=C(NC1CCN(CCCC(c2ccc(F)cc2)c2ccc(F)cc2)CC1)c1ccccc1 [Example 88, 4-(4-Benzamidopiperid-1-yl)-1,1-(di-p-fluorophenyl)butane] | 1.6 to 3.2 | hypotensive activity | 5.9 | 
 | O=C(NC1CCN(CCC=C(c2ccccc2)c2ccccc2)CC1)c1ccccc1 [Example 89, 4-(4-Benzamidopiperid-1-yl)-1,1-diphenylbut-l-ene] | 6.4 to 12.8 | hypotensive activity |  | 
 | O=C(NC1CCN(CCCC(c2ccccc2)c2ccccc2)CC1)c1ccccc1 [Example 90, 4-(4-Benzamidopiperid-1-yl)-1,1-diphenyl butane] | 6.4 to 12.8 | hypotensive activity |  | 
 | O=C(CCN1CCC(NC(=O)c2ccccc2)CC1)c1ccc2c(c1)OCCO2 [Example 91, 1-[3-(1,4-Benzodioxan-6-yl)-3-oxopropyl]-4-benzamidopiperidine] | 25.6 | hypotensive activity |  | 
 | O=C(NC1CCN(CCC(O)c2ccc3c(c2)OCCO3)CC1)c1ccccc1 (stereo not drawn) [Example 92, 1-[3-(1,4-Benzodioxan-6-yl)-3-hydroxypropyl]-4-benzamido piperidine] |  | hypotensive activity | 6.6 | hypotensive activity ([1]; Table 3, cumulative iv dose, fall in diastolic blood pressure of 30 mm or more for at least 15 min): + ++
antihistamine activity | O=C(NC1CCN(CCc2ccncc2)CC1)c1ccccc1 [Example 93, 1-[2-(4-Pyridyl)ethyl]-4-benzamidopiperidine] | < 30 | marked hypotensive activity |  | 
anti-histamine activity | O=C(NC1CCN(CCc2c[nH]cn2)CC1)c1ccccc1 [Example 96, 1-[2-(4-Imidazolyl)ethyl]-4-benzamidopiperidine] | 6.4 to 12.8 | hypotensive activity |  | 
 | Cc1cc(CN2CCC(NC(=O)c3ccccc3)CC2)c(C)n1-c1ccccc1 [Example 99, 1-(2,5-Dimethyl-1-phenylpyrrol-3-yl-methyl)-4-benzamidopiperidine] | < 30 | hypotensive activity |  | 
antihistamine activity | O=C(NC1CCN(CCc2csc3ccccc23)CC1)c1ccccc1 [Example 100, 1-[2-(3-Benzo[b]thienyl)ethyl]-4-benzamidopiperidine] | < 30 | hypotensive activity |  | 
